Test results: patent US20190231884A1, “SYNTHETIC PULMONARY SURFACTANT COMPOSITION FOR TREATING LUNG CONDITIONS” (priority 2016, published 2019)
Converted amounts (≈) assume the structure as drawn.

How the values were obtained:
[1] = test system: M. tb X51 clinical isolate; test: microbe, parasite or virus in culture; format: cell-based, Mycobacterium tuberculosis; conditions: for GROWTH UNITS (Day 8) / SUSCEPTIBILITY MIC99: X51
[2] = test system: M. tuberculosis H37Rv reference strain; test: MGIT 960 mycobacterial growth inhibition, H37Rv; format: cell-based, Mycobacterium tuberculosis; conditions: for GROWTH UNITS (Day 8) / SUSCEPTIBILITY MIC99: H37Rv
[3] = Linezolid 1 μg/ml, growth control GU 400

CC(=O)NC[C@H]1CN(c2ccc(N3CCOCC3)c(F)c2)C(=O)O1 [Linezolid, (S)-N-[[3-(3-fluoro-4-morpholinylpheny1)-2-oxo-5-oxazolidinyl]methyl] acetamide]
MIC ([1]; Mycobacterium tuberculosis, read-out: Minimum Inhibitory Concentration): 1 mg/L (≈ 2.96 µM)
GROWTH UNITS (Day 8) ([1]; Linezolid 0.125 μg/ml): 9164
SUSCEPTIBILITY MIC99 ([1]; Linezolid 0.125 μg/ml): − (the GU of the drug-containing tube were more than 400, the results were defined as showing resistance)
GROWTH UNITS (Day 8) ([1]; Linezolid 0.25 μg/ml): 6727
SUSCEPTIBILITY MIC99 ([1]; Linezolid 0.25 μg/ml): − (the GU of the drug-containing tube were more than 400, the results were defined as showing resistance)
GROWTH UNITS (Day 8) ([1]; Linezolid 0.5 μg/ml): 714
SUSCEPTIBILITY MIC99 ([1]; Linezolid 0.5 μg/ml): − (the GU of the drug-containing tube were more than 400, the results were defined as showing resistance)
SUSCEPTIBILITY MIC99 ([1]; Linezolid 1 μg/ml): + (when the GU of the drug-containing tube were less than 400, the results were considered to show susceptibility)
GROWTH UNITS (Day 8) [1, 3]: 0
GROWTH UNITS (Day 8) ([2]; Linezolid 0.125 μg/ml): 12030
SUSCEPTIBILITY MIC99 ([2]; Linezolid 0.125 μg/ml): − (the GU of the drug-containing tube were more than 400, the results were defined as showing resistance)
GROWTH UNITS (Day 8) ([2]; Linezolid 0.25 μg/ml): 12878
SUSCEPTIBILITY MIC99 ([2]; Linezolid 0.25 μg/ml): − (the GU of the drug-containing tube were more than 400, the results were defined as showing resistance)
GROWTH UNITS (Day 8) ([2]; Linezolid 0.5 μg/ml): 4674
SUSCEPTIBILITY MIC99 ([2]; Linezolid 0.5 μg/ml): − (the GU of the drug-containing tube were more than 400, the results were defined as showing resistance)
SUSCEPTIBILITY MIC99 ([2]; Linezolid 1 μg/ml): + (when the GU of the drug-containing tube were less than 400, the results were considered to show susceptibility)
GROWTH UNITS (Day 8) [2, 3]: 377
MIC ([2]; Mycobacterium tuberculosis, H37Rv Strain, read-out: Minimum Inhibitory Concentration): 1 mg/L (≈ 2.96 µM)
